# Assay results from publication PMC7146755, “Structure-Guided Design and In-Cell Target Profiling of a Cell-Active Target Engagement Probe for PARP Inhibitors” (ACS Chemical Biology, 2020).
# Experiments:
# [1] = molecular target: T1, GST-tagged PARP6 (recombinant) (Homo sapiens, UniProt Q2NL67); assay: competition of PARPYnD photoaffinity labeling, in-gel fluorescence and immunoblot; format: biochemical; conditions: recombinant GST-PARP6 spiked into MDA-MB-468 lysate; […] nm UV
# T1 construct: recombinant GST fusion with HRV3C site in the linker, 98 kDa; intact PARP6 71 kDa after cleavage
# PARP2 (recombinant) = molecular target: T2, PARP2 (recombinant) (Homo sapiens, UniProt Q9UGN5); assay: fluorescence polarization competition binding
# T2 construct: recombinant
# [2] = molecular target: T1, GST-tagged PARP6 (recombinant); assay: fluorescence polarization competition binding
# Text: fluorescence polarization competition binding on GST-tagged PARP6 (recombinant) | IC50 of PARPYnD for PARP6 as determined by the in vitro binding assay
# PARP1 (recombinant) = molecular target: T3, PARP1 (recombinant) (Homo sapiens, UniProt P09874); assay: fluorescence polarization competition binding
# T3 construct: recombinant
# T3 sequence (P09874 2-1014): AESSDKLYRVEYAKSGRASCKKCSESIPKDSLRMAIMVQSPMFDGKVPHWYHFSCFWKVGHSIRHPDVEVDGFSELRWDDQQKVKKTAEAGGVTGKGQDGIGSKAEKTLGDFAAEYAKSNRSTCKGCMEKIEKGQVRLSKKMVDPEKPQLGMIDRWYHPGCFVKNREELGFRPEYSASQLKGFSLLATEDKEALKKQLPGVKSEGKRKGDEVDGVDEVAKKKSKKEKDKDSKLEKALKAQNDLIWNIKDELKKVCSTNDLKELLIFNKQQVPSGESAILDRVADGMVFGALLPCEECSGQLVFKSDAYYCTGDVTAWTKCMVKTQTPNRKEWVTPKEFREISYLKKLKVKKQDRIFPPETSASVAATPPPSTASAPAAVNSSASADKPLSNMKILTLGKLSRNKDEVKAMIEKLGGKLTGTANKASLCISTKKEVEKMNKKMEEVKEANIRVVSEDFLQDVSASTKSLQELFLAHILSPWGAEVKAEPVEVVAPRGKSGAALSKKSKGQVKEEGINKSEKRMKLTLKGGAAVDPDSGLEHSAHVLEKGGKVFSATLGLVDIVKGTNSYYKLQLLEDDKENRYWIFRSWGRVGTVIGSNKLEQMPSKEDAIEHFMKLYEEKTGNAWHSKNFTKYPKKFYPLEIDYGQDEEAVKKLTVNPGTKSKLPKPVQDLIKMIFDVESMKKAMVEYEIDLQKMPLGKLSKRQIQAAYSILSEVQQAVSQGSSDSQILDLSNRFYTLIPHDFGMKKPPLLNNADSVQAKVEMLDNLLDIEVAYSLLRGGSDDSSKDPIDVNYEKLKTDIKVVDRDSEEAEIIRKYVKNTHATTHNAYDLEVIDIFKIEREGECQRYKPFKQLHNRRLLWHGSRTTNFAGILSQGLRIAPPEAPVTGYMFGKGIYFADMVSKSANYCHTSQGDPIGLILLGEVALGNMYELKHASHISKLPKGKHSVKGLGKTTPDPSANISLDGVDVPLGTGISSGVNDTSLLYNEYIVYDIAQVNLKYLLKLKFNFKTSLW
# T1 sequence (Q2NL67 whole entry, the tested form may be a part): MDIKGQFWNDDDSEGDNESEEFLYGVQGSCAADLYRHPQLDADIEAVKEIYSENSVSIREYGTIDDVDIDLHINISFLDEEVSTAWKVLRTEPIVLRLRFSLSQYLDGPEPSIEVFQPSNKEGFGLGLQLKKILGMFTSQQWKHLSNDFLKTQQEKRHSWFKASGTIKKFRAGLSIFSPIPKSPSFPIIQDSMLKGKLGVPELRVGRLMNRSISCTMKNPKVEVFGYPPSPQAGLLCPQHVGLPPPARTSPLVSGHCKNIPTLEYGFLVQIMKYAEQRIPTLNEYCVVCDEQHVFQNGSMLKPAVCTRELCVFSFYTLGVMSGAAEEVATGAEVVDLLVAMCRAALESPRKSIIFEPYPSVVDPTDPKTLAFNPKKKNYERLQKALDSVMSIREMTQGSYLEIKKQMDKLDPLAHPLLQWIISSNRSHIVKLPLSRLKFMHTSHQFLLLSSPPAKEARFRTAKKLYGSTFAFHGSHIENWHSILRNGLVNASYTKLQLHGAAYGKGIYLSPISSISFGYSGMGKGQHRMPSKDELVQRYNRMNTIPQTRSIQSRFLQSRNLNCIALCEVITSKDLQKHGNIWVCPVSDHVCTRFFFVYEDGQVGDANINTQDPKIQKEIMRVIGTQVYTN
# T2 sequence (Q9UGN5 whole entry): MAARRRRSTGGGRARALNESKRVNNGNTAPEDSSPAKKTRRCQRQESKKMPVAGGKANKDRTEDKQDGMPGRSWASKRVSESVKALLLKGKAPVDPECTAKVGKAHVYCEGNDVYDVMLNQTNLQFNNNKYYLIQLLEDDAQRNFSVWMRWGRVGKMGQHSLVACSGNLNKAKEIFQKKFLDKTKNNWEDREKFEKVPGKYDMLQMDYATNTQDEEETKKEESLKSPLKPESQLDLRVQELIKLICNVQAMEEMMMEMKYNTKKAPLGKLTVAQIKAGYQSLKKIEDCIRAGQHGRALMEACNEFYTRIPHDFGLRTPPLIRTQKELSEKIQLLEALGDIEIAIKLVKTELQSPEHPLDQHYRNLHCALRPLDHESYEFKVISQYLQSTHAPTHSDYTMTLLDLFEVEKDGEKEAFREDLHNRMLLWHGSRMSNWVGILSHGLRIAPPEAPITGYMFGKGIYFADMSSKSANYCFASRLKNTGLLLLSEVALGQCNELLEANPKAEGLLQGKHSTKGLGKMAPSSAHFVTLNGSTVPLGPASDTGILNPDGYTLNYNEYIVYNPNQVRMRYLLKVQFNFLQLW
IC50 (PARP2 (recombinant)) [nM],IC50 [2] [nM],IC50 (PARP1 (recombinant)) [nM],SMILES,"competition of PARPYnD photoaffinity labeling, in-gel fluorescence and immunoblo [1]"
,,,C[C@H]1Cn2c(nnc2C(C)(F)F)CN1C(=O)c1cccc(C(F)(F)c2n[nH]c(=O)c3ccccc23)c1 [AZ0108],which was depleted by PARP6 inhibitor AZ0108
6,230,38,C#CCCC1(CCC(=O)Nc2cnc(N3CCN(C(=O)c4cccc(Cc5n[nH]c(=O)c6ccccc56)c4)CC3)c(C#N)c2)N=N1 [PARPYnD],
